# From the RepoRT retention time repository (doi:10.1016/j.scitotenv.2015.09.145)
# Assay: Waters Atlantis T3, 100 × 2.1 mm, 3 µm, 0.1 mL/min, estimated dead time 2.2 min; A: water + 0.01% formic acid; B: methanol; gradient (min/%B) 0/2 3/2 20/100 29/100
# Details: stereoisomer not certain
row,SMILES,LC retention time [min]
1,CCC1OC(=O)C(C)C(OC2CC(C)(OC)C(O)C(C)O2)C(C)C(OC2OC(C)CC(N(C)C)C2O)C(C)(O)CC(C)C(=O)C(C)C(O)C1(C)O (stereo not given),18.5
2,CCN(C)C(=O)Oc1cccc(C(C)N(C)C)c1 (stereo not given),14.8
3,CC=C1N(C)C(C)CC1(c1ccccc1)c1ccccc1 (stereo not given),16.9
4,COc1ccc(C(CN(C)C)C2(O)CCCCC2)cc1 (stereo not given),16.6
5,COc1ccc2c3c1OC1C(O)C=CC4C(C2)N(C)CCC341 (stereo not given),12.2
6,CC(N)Cc1ccccc1 (stereo not given),13.3
7,CN1CCC23c4c5ccc(O)c4OC2C(O)C=CC3C1C5 (stereo not given),10.1
8,CC(=O)OC1C=CC2C3Cc4ccc(O)c5c4C2(CCN3C)C1O5 (stereo not given),13
9,Cn1c(=O)c2[nH]cnc2n(C)c1=O,14.3
10,CC1=C(C(=O)O)N2C(=O)C(NC(=O)C(N)c3ccccc3)C2SC1 (stereo not given),14.3
11,CN1C2CCC1C(C(=O)O)C(OC(=O)c1ccccc1)C2 (stereo not given),15.7
12,c1ccc2c(c1)Cc1cccnc1N1CCNCC21 (stereo not given),15.7
13,CN(C)C1C(=O)C(C(N)=O)=C(O)C2(O)C(=O)C3=C(O)c4c(O)cccc4C(C)(O)C3CC12 (stereo not given),14.8
14,CCC(=O)C(CC(C)N(C)C)(c1ccccc1)c1ccccc1 (stereo not given),18.5
15,CCC1OC(=O)C(C)C(OC2CC(C)(OC)C(O)C(C)O2)C(C)C(OC2OC(C)CC(N(C)C)C2O)C(C)(OC)CC(C)C(=O)C(C)C(O)C1(C)O (stereo not given),19.6
16,C=CC1(C)CC(OC(=O)CSCCN(CC)CC)C2(C)C(C)CCC3(CCC(=O)C32)C(C)C1O (stereo not given),18.1
17,Cc1ncc([N+](=O)[O-])n1CCO,13.2
18,CC(=O)Oc1ccc2c3c1OC1C(OC(C)=O)C=CC4C(C2)N(C)CCC341 (stereo not given),14.7
19,CN1CCN2c3ncc(O)cc3Cc3ccccc3C2C1 (stereo not given),14.4
20,COc1ccc2c3c1OC1C(=O)CCC4(O)C(C2)N(C)CCC314 (stereo not given),12.6
21,Cn1c([N+](=O)[O-])cnc1COC(N)=O,13.1
22,Cc1cc2c(s1)Nc1ccccc1N=C2N1CCN(C)CC1,20.4
23,CC(N)Cc1ccc2c(c1)OCO2 (stereo not given),13.6

row,SMILES,LC retention time [min]
1,CCN(CC)C(=O)C1C=C2c3cccc4[nH]cc(c34)CC2N(C)C1 (stereo not given),15.8
2,CN(C)C1C(=O)C(C(N)=O)=C(O)C2(O)C(=O)C3=C(O)c4c(O)cccc4C(C)(O)C3C(O)C12 (stereo not given),15.1
3,CNC(C)Cc1ccc2c(c1)OCO2 (stereo not given),17.4
4,CC(C)CC(CN)CC(=O)O (stereo not given),13.2
5,CN1CCN2c3ncccc3Cc3ccccc3C2C1 (stereo not given),15.5
6,CCC(C(N)=O)N1CCCC1=O (stereo not given),13.6
7,COCC(NC(C)=O)C(=O)NCc1ccccc1 (stereo not given),16.8
8,COc1cccc(C2(O)CCCCC2CN(C)C)c1 (stereo not given),14.6
9,NCC1(CC(=O)O)CCCCC1,13.3
10,CC1c2cccc(O)c2C(O)=C2C(=O)C3(O)C(O)=C(C(N)=O)C(=O)C(N(C)C)C3C(O)C21 (stereo not given),17.7
11,Cc1ccc(-c2nc3ccc(C)cn3c2CC(=O)N(C)C)cc1,15.5
12,CC(=O)C1CCC2C3CCC4=CC(=O)CCC4(C)C3CCC12C (stereo not given),24.7
13,CNC(C)C(O)c1ccccc1 (stereo not given),12.4
14,Nc1nc(N)c2nc(-c3ccccc3)c(N)nc2n1,14.7
15,CCNC(C)Cc1ccc2c(c1)OCO2 (stereo not given),14.1
16,CCC1OC(=O)C(C)C(OC2CC(C)(OC)C(O)C(C)O2)C(C)C(OC2OC(C)CC(N(C)C)C2O)C(C)(O)CC(C)CN(C)C(C)C(O)C1(C)O (stereo not given),17.4
17,CCC1OC(=O)CC(O)C(C)C(OC2OC(C)C(OC3CC(C)(O)C(O)C(C)O3)C(N(C)C)C2O)C(CC=O)CC(C)C(=O)C=CC(C)=CC1COC1OC(C)C(O)C(OC)C1OC (stereo not given),18.3
18,O=C1CN=C(c2ccccc2)c2cc([N+](=O)[O-])ccc2N1,20.4
19,CNC(C)Cc1ccccc1 (stereo not given),13.5
20,COC(=O)C1C(OC(=O)c2ccccc2)CC2CCC1N2C (stereo not given),14.9
21,CCn1cc(C(=O)O)c(=O)c2cc3c(cc21)OCO3,20.1
22,Cn1c(=O)c2c(ncn2C)n(C)c1=O,15.2

# Now from value to compound:
row,LC retention time [min],SMILES
1,17.6,CN(C)CCC=C1c2ccccc2COc2ccccc21
2,15.2,COc1cc(NS(=O)(=O)c2ccc(N)cc2)ncn1
3,13.8,Nc1ccc(S(=O)(=O)Nc2ccccn2)cc1
4,19.1,CNCCC=C1c2ccccc2CCc2ccccc21
5,17.8,Nc1ccc(S(=O)(=O)Nc2cnc3ccccc3n2)cc1
6,15,COCCc1ccc(OCC(O)CNC(C)C)cc1 (stereo not given)
7,19.6,Cc1ccsc1C(=CCCN1CCCC(C(=O)O)C1)c1sccc1C (stereo not given)
8,13.5,COc1cc(Cc2cnc(N)nc2N)cc(OC)c1OC
9,18.9,CN(C)CCC=C1c2ccccc2CCc2ccccc21
10,27,CCC(C)(C)C(=O)OC1CC(C)C=C2C=CC(C)C(CCC3CC(O)CC(=O)O3)C21 (stereo not given)
11,13.4,CCN1CCCC1CNC(=O)c1cc(S(=O)(=O)CC)c(N)cc1OC (stereo not given)
12,16,COc1ccc(NS(=O)(=O)c2ccc(N)cc2)nn1
13,11.9,CN=C(NC#N)NCCSCc1nc[nH]c1C
14,16,Cc1nc(NS(=O)(=O)c2ccc(N)cc2)oc1C
15,11.6,CCN1CCCC1CNC(=O)c1cc(S(N)(=O)=O)ccc1OC (stereo not given)
16,17,CCC1(c2ccccc2)C(=O)NCNC1=O
17,18.8,NC(=O)N1c2ccccc2CC(=O)c2ccccc21
18,11.7,CC(C)NCC(O)COc1ccc(CC(N)=O)cc1 (stereo not given)
19,14.8,Cc1nnc(NS(=O)(=O)c2ccc(N)cc2)s1
20,13.3,CCCC1CC(C(=O)NC(C(C)O)C2OC(SC)C(O)C(O)C2O)N(C)C1 (stereo not given)

row,LC retention time [min],SMILES
1,14.5,Cc1noc(NS(=O)(=O)c2ccc(N)cc2)c1C
2,11.8,CNC(=C[N+](=O)[O-])NCCSCc1ccc(CN(C)C)o1
3,15,Cc1cc(C)nc(NS(=O)(=O)c2ccc(N)cc2)n1
4,14.2,Cc1ccnc(NS(=O)(=O)c2ccc(N)cc2)n1
5,18.7,CNCCC(Oc1cccc2ccccc12)c1cccs1 (stereo not given)
6,13.2,Nc1ccc(S(=O)(=O)Nc2ncccn2)cc1
7,15.7,Cc1cc(NS(=O)(=O)c2ccc(N)cc2)no1
8,14.8,CNCC(c1ccc(OC)cc1)C1(O)CCCCC1 (stereo not given)
9,14.2,CCN(CC)CC(=O)Nc1c(C)cccc1C
10,16,COc1ncnc(NS(=O)(=O)c2ccc(N)cc2)c1OC
11,17.6,OCCOCCN1CCN(C2=Nc3ccccc3Sc3ccccc32)CC1
12,28.1,CC1(C)SC2C(NC(=O)C(N)c3ccc(O)cc3)C(=O)N2C1C(=O)O (stereo not given)
13,18.6,CN(C)CCCN1c2ccccc2CCc2ccccc21
14,20.1,NC(=O)N1c2ccccc2C=Cc2ccccc21
15,7.11,NC(N)=NS(=O)(=O)c1ccc(N)cc1
16,17.5,COc1cc(NS(=O)(=O)c2ccc(N)cc2)nc(OC)n1
17,13.5,Nc1ccc(S(=O)(=O)Nc2nccs2)cc1
18,17.1,CC(C)NCC(O)COc1cccc2ccccc12 (stereo not given)
19,23.2,CCCCC(=O)N(Cc1ccc(-c2ccccc2-c2nn[nH]n2)cc1)C(C(=O)O)C(C)C (stereo not given)
20,13.1,CC(=O)Nc1ccc(O)cc1
